In PubChem BioAssay (NCI):
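How tested: cells in 96-well plates exposed to compound for 48 hours at five concentrations. GI50 is the concentration that inhibits growth by half. TGI is the concentration that stops growth completely.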

Tests used:
Experiment in all cases: NCI-60 cell line screen, 48 h
[1] = tested on: HCC-2998 colon
[2] = tested on: U251 CNS
[3] = tested on: SN12C renal
[4] = tested on: LOX IMVI melanoma
[5] = tested on: COLO 205 colon
[6] = tested on: NCI/ADR-RES ovarian
[7] = tested on: NCI-H23 lung
[8] = tested on: HS 578T breast
[9] = tested on: UACC-62 melanoma
[10] = tested on: SK-MEL-2 melanoma
[11] = tested on: SNB-75 CNS
[12] = tested on: OVCAR-5 ovarian
[13] = tested on: NCI-H522 lung
[14] = tested on: SF-268 CNS
[15] = tested on: DU-145 prostate
[16] = tested on: TK-10 renal
[17] = tested on: MOLT-4 leukemia
[18] = tested on: MCF7 breast
[19] = tested on: SK-MEL-5 melanoma
[20] = tested on: MDA-MB-435
[21] = tested on: UO-31 renal
[22] = tested on: CAKI-1 renal
[23] = tested on: SF-295 CNS
[24] = tested on: RXF 393 renal
[25] = tested on: RPMI-8226 leukemia
[26] = tested on: IGROV1 ovarian
[27] = tested on: A498 renal
[28] = tested on: HOP-92 NSCLC
[29] = tested on: PC-3 prostate
[30] = tested on: M14 melanoma
[31] = tested on: KM12 colon
[32] = tested on: HCT-116 colon
[33] = tested on: HOP-62 NSCLC
[34] = tested on: SK-MEL-28 melanoma
[35] = tested on: SK-OV-3 ovarian
[36] = tested on: ACHN renal
[37] = tested on: OVCAR-3 ovarian
[38] = tested on: SW-620 colon
[39] = tested on: CCRF-CEM leukemia
[40] = tested on: SF-539 CNS
[41] = tested on: BT-549 breast
[42] = tested on: UACC-257 melanoma
[43] = tested on: A549 NSCLC
[44] = tested on: SNB-19 CNS
[45] = tested on: OVCAR-8 ovarian
[46] = tested on: 786-0 renal
[47] = tested on: T-47D breast
[48] = tested on: OVCAR-4 ovarian
[49] = tested on: HCT-15 colon
[50] = tested on: K-562 leukemia
[51] = tested on: EKVX NSCLC
[52] = tested on: MDA-MB-231 breast
[53] = tested on: HT29 colon
[54] = tested on: NCI-H460 lung
[55] = tested on: MALME-3M melanoma
[56] = tested on: NCI-H226 lung
[57] = tested on: HL-60(TB) leukemia

CCOC(=O)CN1C(=O)NC(C)(c2ccccc2)C1=O (stereo not given)
TGI [1]: > 100 µM
TGI [2]: > 100 µM
TGI [3]: > 100 µM
TGI [4]: > 100 µM
TGI [5]: > 100 µM
TGI [6]: > 100 µM
TGI [7]: > 100 µM
TGI [8]: > 100 µM
TGI [9]: > 100 µM
TGI [10]: > 100 µM
TGI [11]: > 100 µM
TGI [12]: > 100 µM
TGI [13]: > 100 µM
TGI [14]: > 100 µM
TGI [15]: > 100 µM
TGI [16]: > 100 µM
TGI [17]: > 100 µM
TGI [18]: > 100 µM
TGI [19]: > 100 µM
TGI [20]: > 100 µM
TGI [21]: > 100 µM
TGI [22]: > 100 µM
TGI [23]: > 100 µM
TGI [24]: > 100 µM
TGI [25]: > 100 µM
TGI [26]: > 100 µM
TGI [27]: > 100 µM
TGI [28]: > 100 µM
TGI [29]: > 100 µM
TGI [30]: > 100 µM
TGI [31]: > 100 µM
TGI [32]: > 100 µM
TGI [33]: > 100 µM
TGI [34]: > 100 µM
TGI [35]: > 100 µM
TGI [36]: > 100 µM
TGI [37]: > 100 µM
TGI [38]: > 100 µM
TGI [39]: > 100 µM
TGI [40]: > 100 µM
TGI [41]: > 100 µM
TGI [42]: > 100 µM
TGI [43]: > 100 µM
TGI [44]: > 100 µM
TGI [45]: > 100 µM
TGI [46]: > 100 µM
TGI [47]: > 100 µM
TGI [48]: > 100 µM
TGI [49]: > 100 µM
TGI [50]: > 100 µM
TGI [51]: > 100 µM
TGI [52]: > 100 µM
TGI [53]: > 100 µM

CC(O)CNC(=O)Nc1c(C(F)(F)F)cc(-c2ccccc2)[nH]c1=O (stereo not given)
TGI [1]: > 100 µM
TGI [2]: > 100 µM
TGI [3]: > 100 µM
TGI [4]: > 100 µM
TGI [5]: > 100 µM
TGI [6]: > 100 µM
TGI [7]: > 100 µM
TGI [8]: > 100 µM
TGI [9]: > 100 µM
TGI [10]: > 100 µM
TGI [12]: > 100 µM
TGI [13]: > 100 µM
TGI [14]: > 100 µM
TGI [15]: > 100 µM
TGI [16]: > 100 µM
TGI [17]: > 100 µM
TGI [18]: > 100 µM
TGI [19]: > 100 µM
TGI [20]: > 100 µM
TGI [21]: > 100 µM
TGI [22]: > 100 µM
TGI [23]: > 100 µM
TGI [24]: > 100 µM
TGI [26]: > 100 µM
TGI [27]: > 100 µM
TGI [28]: > 100 µM
TGI [29]: > 100 µM
TGI [30]: > 100 µM
TGI [31]: > 100 µM
TGI [32]: > 100 µM
TGI [33]: > 100 µM
TGI [54]: > 100 µM
TGI [34]: > 100 µM
TGI [55]: > 100 µM
TGI [35]: > 100 µM
TGI [36]: > 100 µM
TGI [37]: > 100 µM
TGI [38]: > 100 µM
TGI [39]: > 100 µM
TGI [41]: > 100 µM
TGI [42]: > 100 µM
TGI [43]: > 100 µM
TGI [44]: > 100 µM
TGI [45]: > 100 µM
TGI [46]: > 100 µM
TGI [47]: > 100 µM
TGI [48]: > 100 µM
TGI [49]: > 100 µM
TGI [50]: > 100 µM
TGI [51]: > 100 µM
TGI [56]: > 100 µM
TGI [52]: > 100 µM
TGI [57]: 1.54 µM
TGI [53]: > 100 µM

COc1cc(-c2nn(-c3ccc(NC(=O)Nc4cc(C(F)(F)F)cc(C(F)(F)F)c4)cc3)cc2-c2ccncc2)ccc1Cl
GI50 [1]: 2.21 µM
TGI [1]: 5.38 µM
GI50 [2]: 1.8 µM
TGI [2]: 4.52 µM
GI50 [3]: 1.71 µM
TGI [3]: 4.21 µM
GI50 [5]: 1.6 µM
TGI [5]: 3.32 µM
GI50 [6]: 2 µM
TGI [6]: 7.38 µM
GI50 [7]: 2.01 µM
TGI [7]: 5.56 µM
GI50 [8]: 2.94 µM
TGI [8]: > 100 µM
GI50 [9]: 1.55 µM
TGI [9]: 3.4 µM
GI50 [10]: 1.7 µM
TGI [10]: 3.43 µM
GI50 [11]: 1.99 µM
TGI [11]: 5.35 µM
GI50 [12]: 1.91 µM
TGI [12]: 5.16 µM
GI50 [13]: 2.25 µM
TGI [13]: 5.99 µM
GI50 [14]: 2.47 µM
TGI [14]: 7.3 µM
GI50 [15]: 3.39 µM
TGI [15]: 11.2 µM
GI50 [16]: 3.13 µM
TGI [16]: 9.3 µM
GI50 [17]: 3.28 µM
TGI [17]: > 100 µM
GI50 [18]: 2.84 µM
TGI [18]: 8.98 µM
GI50 [19]: 1.53 µM
TGI [19]: 2.98 µM
GI50 [20]: 1.88 µM
TGI [20]: 3.99 µM
GI50 [21]: 1.34 µM
TGI [21]: 3.22 µM
GI50 [22]: 1.97 µM
TGI [22]: 6.73 µM
GI50 [23]: 1.1 µM
TGI [23]: 2.63 µM
GI50 [24]: 1.61 µM
TGI [24]: 3.58 µM
GI50 [26]: 2.65 µM
TGI [26]: 8.25 µM
GI50 [27]: 1.81 µM
TGI [27]: 3.79 µM
GI50 [28]: 1.07 µM
TGI [28]: 4.32 µM
GI50 [29]: 1.2 µM
TGI [29]: 10.8 µM
GI50 [30]: 1.99 µM
TGI [30]: 4.23 µM
GI50 [31]: 1.34 µM
TGI [31]: 3.09 µM
GI50 [32]: 1.65 µM
TGI [32]: 3.39 µM
GI50 [33]: 1.51 µM
TGI [33]: 3.1 µM
GI50 [54]: 1.75 µM
TGI [54]: 3.88 µM
GI50 [34]: 1.93 µM
TGI [34]: 3.74 µM
GI50 [35]: 1.55 µM
TGI [35]: 3.09 µM
GI50 [36]: 1.94 µM
TGI [36]: 7.86 µM
GI50 [37]: 1.46 µM
TGI [37]: 3.88 µM
GI50 [38]: 1.87 µM
TGI [38]: 3.84 µM
GI50 [39]: 2.13 µM
TGI [39]: > 100 µM
GI50 [40]: 1.64 µM
TGI [40]: 3.71 µM
GI50 [41]: 2.61 µM
TGI [41]: 6.03 µM
GI50 [42]: 2.3 µM
TGI [42]: 7.73 µM
GI50 [43]: 2.47 µM
TGI [43]: 13 µM
GI50 [44]: 1.8 µM
TGI [44]: 3.88 µM
GI50 [45]: 2.48 µM
TGI [45]: 27.8 µM
GI50 [46]: 2.48 µM
TGI [46]: 6.39 µM
GI50 [47]: 1.96 µM
TGI [47]: 7.77 µM
GI50 [48]: 2.78 µM
TGI [48]: 9.43 µM
GI50 [49]: 1.58 µM
TGI [49]: 4.01 µM
GI50 [50]: 2.48 µM
TGI [50]: > 100 µM
GI50 [51]: 1.43 µM
TGI [51]: 3.48 µM
GI50 [56]: 1.92 µM
TGI [56]: 4.84 µM
GI50 [52]: 1.64 µM
TGI [52]: 3.34 µM
GI50 [57]: 3.04 µM
TGI [57]: > 100 µM
GI50 [53]: 3.31 µM
TGI [53]: 12.3 µM
